Earlier results on ten compounds are cited in patent US20100113605A1 (priority 2007, published 2010).

The test system of data set [1] is rat striatal slices. The note with it: for Percentage increase in [^3H]dopamine release: mean ± SEM (n ≧ 4), NS = not significantly different from basal [^3H]dopamine overflow; for release of [^3H]dopamine from superfused rat striatal slices: low (10^−7M) and high (10^−5M) concentration.
For data set [2] the following is noted: in vivo.
Data set [3] has as its target DAT (Rattus norvegicus, UniProt P23977). As to conditions: for Site of action: 'Intraneuronal' cell continues 'via DAT'; for Pharmacodynamics of effect on synaptic [DA]: [DA] = dopamine concentration, cell wraps, ends with 'increases'; for Firing dependent effect on synaptic [DA]: in vivo.
Data set [4] has as its system electrically-evoked levels of extracellular dopamine in the nucleus accumbens. As to conditions: 100 nmol icv, 1 day after injection.
Data set [5] relates to extraneuronal dopamine concentrations in the nucleus accumbens.
Data set [6] relates to extraneuronal dopamine in the nucleus accumbens. The note with it: d-amphetamine 0.5 mg/kg s.c.; tetrodotoxin 1×10^−6M.

Where two headings read alike, the source gives them in different places.

DAT, sequence (P23977 whole entry): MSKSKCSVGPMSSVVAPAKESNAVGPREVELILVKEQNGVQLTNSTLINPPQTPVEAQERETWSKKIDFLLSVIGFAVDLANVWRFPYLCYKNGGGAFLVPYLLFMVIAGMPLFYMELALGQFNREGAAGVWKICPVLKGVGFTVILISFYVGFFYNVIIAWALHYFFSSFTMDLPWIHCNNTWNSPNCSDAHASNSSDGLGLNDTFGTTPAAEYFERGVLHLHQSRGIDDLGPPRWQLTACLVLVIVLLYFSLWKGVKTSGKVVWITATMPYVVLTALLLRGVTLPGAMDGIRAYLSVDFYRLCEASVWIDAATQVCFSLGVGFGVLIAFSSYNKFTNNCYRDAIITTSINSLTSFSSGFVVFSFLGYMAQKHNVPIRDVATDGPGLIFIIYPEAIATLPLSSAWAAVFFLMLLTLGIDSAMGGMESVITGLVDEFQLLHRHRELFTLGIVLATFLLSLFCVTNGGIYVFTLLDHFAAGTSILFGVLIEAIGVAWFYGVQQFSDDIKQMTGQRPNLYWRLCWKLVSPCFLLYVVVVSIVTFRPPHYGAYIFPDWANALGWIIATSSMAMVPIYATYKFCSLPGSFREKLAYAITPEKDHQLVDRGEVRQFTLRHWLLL

Turning to `COC(=O)C(c1ccccc1)C1CCCCN1` (racemic) [Methylphenidate, dl-threo-methylphenidate], in data set [1] (10^−5M), the “Percentage increase in [^3H]dopamine release” value (“Percentage increase” for short) is recorded as 24 ± 7 %. In addition, in data set [1] (10^−5M, listed as methylphenidate), the “Percentage increase” value is “statistically significant increase”. The “Percentage increase” value in data set [1] (10^−7M) is given as “no stimulation”. Also, the Euphoriant/psychostimulant result in data set [2] is “Yes”. In addition, in data set [3], the Site of action result is “Extraneuronal”; the “Pharmacodynamics of effect on synaptic [DA]” value (“Pharmacodynamics of effect” below) was “Rapid, very large”; the “Firing dependent effect on synaptic [DA]” value is “Yes”.

With `CC(N)Cc1ccccc1` (centres unmarked) [Amphetamine], in data set [2], the Euphoriant/psychostimulant result is “Yes”. Besides, in data set [3], the Site of action result is “Intraneuronal”; the “Pharmacodynamics of effect” value is reported as “Rapid, very large”; the “Firing dependent effect on synaptic [DA]” value is given as “No”.

Regarding `CNC(CC(C)C)C1(c2ccc(Cl)cc2)CCC1` (centres unmarked) [BTS 54 354, N-{1-[1-(4-chlorophenyl)cyclobutyl]-3-methylbutyl}-N-methylamine], the “release of [^3H]dopamine from superfused rat striatal slices” value (from here on “release of [^3H]dopamine”) in data set [1] is on record as “did not release”.

Regarding `CC(C)CC(N)C1(c2ccc(Cl)cc2)CCC1` (centres unmarked) [BTS 54 505, 1-[1-(4-chlorophenyl)cyclobutyl]-3-methylbutylamine], in data set [1], the “release of [^3H]dopamine” value is “did not release”.

Turning to `CC(NC(C)(C)C)C(=O)c1cccc(Cl)c1` (centres unmarked) [Bupropion, bupropion], the “release of [^3H]dopamine” value in data set [1] is “did not release”. Besides, in data set [3], the Site of action entry is listed as “Extraneuronal”; the “Pharmacodynamics of effect” value is given as “Gradual, moderate,”; the “Firing dependent effect on synaptic [DA]” value is “Yes”.

Take `CNC(C)Cc1ccc2c(c1)OCO2` (centres unmarked) [MDMA, methylenedioxymethamphetamine]: in data set [2], the Euphoriant/psychostimulant entry was “Yes”. Further, in data set [3], the Site of action entry is recorded as “Intraneuronal”; the “Pharmacodynamics of effect” value is given as “Rapid, very large”; the “Firing dependent effect on synaptic [DA]” value is reported as “No”.

As to `CN[C@@H](C)Cc1ccccc1` [Methamphetamine, methamphetamine], the “Percentage increase” value in data set [1] (10^−5M) is recorded as 140 ± 10 %. Besides, in data set [1] (10^−7M), the “Percentage increase” value is 37 ± 10 %. The “release of [^3H]dopamine” value in data set [1] is “dose-dependently released”. Further, the Euphoriant/psychostimulant entry in data set [2] is given as “Yes”. In addition, in data set [3], the Site of action entry is “Intraneuronal”; the “Pharmacodynamics of effect” value is given as “Rapid, very large”; the “Firing dependent effect on synaptic [DA]” value is given as “No”.

For the compound `CN1C2CCC1C(C(=O)OCc1ccc(N=C=S)cc1)C(c1ccc(Cl)cc1)C2.Cl` (stereo not drawn) [RTI-76, 3β-(ρ-chlorophenyl)tropan-2α-carboxylic acid ρ-isothio-cyanatophenylmethyl ester hydrochloride], the “extracellular concentration of dopamine in the nucleus accumbens, electrically evoked” value in data set [4] is recorded as “increases the extracellular concentration of dopamine in the nucleus accumbens in a frequency-dependent manner”.

As for `CC(C)CC(N(C)C)C1(c2ccc(Cl)cc2)CCC1` (centres unmarked) [Sibutramine, sibutramine], in data set [1], the “release of [^3H]dopamine” value is “did not release”. Moreover, the Euphoriant/psychostimulant entry in data set [2] is listed as “No”. Also, in data set [3], the Site of action result is recorded as “Extraneuronal”; the “Pharmacodynamics of effect” value is given as “Gradual, moderate,”; the “Firing dependent effect on synaptic [DA]” value is “Yes”. The “increase in extraneuronal concentration of dopamine in the nucleus accumbens” value in data set [5] (2.0 mg/kg ip, freely-moving rats) was “failed to reach statistical significance”. Besides, the “time of maximum increase in extraneuronal dopamine” value in data set [5] (6.0 mg/kg ip) is on record as 60 min. In addition, the “maximum increase in extraneuronal concentration of dopamine in the nucleus accumbens” value in data set [5] (6.0 mg/kg ip, at 60 min, freely-moving rats, P<0.001) was 231±87%.

For `C[C@H](N)Cc1ccccc1` [d-Amphetamine, d-amphetamine], the “Percentage increase” value is 138 ± 15 % in data set [1] (10^−5M) and 56 ± 9 % in data set [1] (10^−7M). Further, the “release of [^3H]dopamine” value in data set [1] is “dose-dependently released”. Moreover, the “effect of tetrodotoxin in the dialysate on the drug-evoked increase in extraneuronal dopamine” value in data set [6] is “not altered”. For the same compound, the “peak increase in extraneuronal dopamine concentration in the nucleus accumbens” value in data set [5] (0.5 mg/kg ip) was 242±89%; in data set [5] (1.5 mg/kg ip), 603±319%. For the same compound, the “time of maximum increase in extraneuronal dopamine” value in data set [5] (both doses, 0.5 and 1.5 mg/kg ip) is 40 min.
